According to publication PMC10989504 (RSC Chemical Biology, 2024):

What was measured:
papain = target: T1, papain (Carica papaya, UniProt P00784); assay: Papain inhibition; format: biochemical; conditions: TD19 at 10 μM; E64 and IAA positive controls
T1 sequence (P00784 134-345): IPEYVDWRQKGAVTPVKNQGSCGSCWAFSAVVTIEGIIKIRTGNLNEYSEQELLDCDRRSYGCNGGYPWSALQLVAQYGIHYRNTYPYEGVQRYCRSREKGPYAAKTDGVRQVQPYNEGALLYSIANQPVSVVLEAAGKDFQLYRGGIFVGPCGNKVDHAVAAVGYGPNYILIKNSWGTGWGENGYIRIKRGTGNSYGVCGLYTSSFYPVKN

AML and GBM cells = assay: Viability of AML and GBM cells, control compound; conditions: 72 h, MTT/CCK8, in words
ALKBH5 [1] = target: T2, ALKBH5 (Homo sapiens, UniProt Q6P6C2); assay: PAGE-based demethylation assay, ALKBH5; format: biochemical; conditions: compound at 50 μM
FTO = FTO (Homo sapiens, UniProt Q9C0B1); assay: PAGE-based demethylation assay, FTO; format: biochemical; conditions: compound at 50 μM
ALKBH5 [2] = target: T2, ALKBH5; assay: FRET-based m6A detection assay, ALKBH5; conditions: preincubation for various durations, in words
ALKBH5 C100SC267S = ALKBH5 C100SC267S (human, UniProt Q6P6C2 66-292, C100S;C267S); assay: pull-down
ALKBH5 C100SC267S, sequence (Q6P6C2 66-292 C100S/C267S): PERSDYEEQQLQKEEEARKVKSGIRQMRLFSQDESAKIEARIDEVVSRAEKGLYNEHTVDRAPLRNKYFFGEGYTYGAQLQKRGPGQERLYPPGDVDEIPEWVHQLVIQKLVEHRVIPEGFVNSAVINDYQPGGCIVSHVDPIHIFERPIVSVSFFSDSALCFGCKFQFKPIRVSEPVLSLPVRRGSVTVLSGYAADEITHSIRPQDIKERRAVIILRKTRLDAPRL

T2 sequence (Q6P6C2 66-292 limits assumed): as the sequence (Q6P6C2 66-292 C100S/C267S) above, with S35C, S202C counted along it
FTO, sequence (Q9C0B1 32-505 limits assumed): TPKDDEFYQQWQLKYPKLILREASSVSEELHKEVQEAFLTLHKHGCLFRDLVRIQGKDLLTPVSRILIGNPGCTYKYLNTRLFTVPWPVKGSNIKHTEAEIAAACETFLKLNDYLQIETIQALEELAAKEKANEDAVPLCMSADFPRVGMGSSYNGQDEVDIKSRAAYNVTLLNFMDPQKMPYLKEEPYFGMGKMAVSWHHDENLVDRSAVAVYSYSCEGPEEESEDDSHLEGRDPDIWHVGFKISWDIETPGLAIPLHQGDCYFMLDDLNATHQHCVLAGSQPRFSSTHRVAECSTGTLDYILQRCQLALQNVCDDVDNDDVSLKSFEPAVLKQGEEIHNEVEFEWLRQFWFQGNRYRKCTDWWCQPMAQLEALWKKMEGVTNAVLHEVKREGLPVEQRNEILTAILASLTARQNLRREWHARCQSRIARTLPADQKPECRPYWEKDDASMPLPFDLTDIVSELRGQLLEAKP

Molecule	Inhibition of papain (papain)	Inhibition of ALKBH5 demethylation of dm6A-modified substrate (ALKBH5 [1])	also measured
CC(C)C[C@H](NC(=O)[C@H]1O[C@@H]1C(=O)O)C(=O)NCCCCN=C(N)N (relative stereo) [E64, L-trans-epoxysuccinyl-leucylamido(4-guanidino)butane]	significant inhibition		
Cc1noc(C)c1-c1cc(Cl)c(Nc2ccccc2C(=O)NO)c(Cl)c1 [FB23-2]			Antiproliferative activity compared with TD19 (AML and GBM cells): displayed better activities than TD19
NC(=O)CI [IAA, iodoacetamide]	significant inhibition	did not inhibit	Inhibition of FTO demethylation of dm6A-modified substrate (FTO): did not inhibit
CCN1C(=O)C=CC1=O [NEM, N-ethylmaleimide]		inhibited the demethylation	
O=C(O)c1cc(O)c2c(c1)C(=O)c1cccc(O)c1C2=O [rhein]			Time dependence and reversibility of ALKBH5 inhibition (ALKBH5 [2]): time-independent and reversible
TTTTTTGGACT (ssDNA, N6-methyl-deoxyadenosine at position 9) [5'-biotin-TEG dm6A DNA]			binding result (ALKBH5 C100SC267S): binds
